{"source": "patent US10940144B2", "about": "“Drug containing pyridylaminoacetic acid compound” (priority 2017, dated 2021)", "key": {"[1]": {"test_system": "retinal blood vessels", "assay": "Pharmacological Test 2: retinal vasodilatory action (retinal vascular diameter) after intravitreal administration of omidenepag isopropyl to rabbits", "assay_type": "in vivo, rabbit", "settings": "for Base-Corrected Retinal Vascular Diameter Change Rate (%) 1 Hour After Administration / Base-Corrected Retinal Vascular Diameter Change Rate (%) 2 Hours After Administration / Base-Corrected Retinal Vascular Diameter Change Rate (%) 6 Hours After Administration / Base-Corrected Retinal Vascular Diameter Change Rate (%) 24 Hours After Administration / Base-Corrected Retinal Vascular Diameter Change Rate (%) 48 Hours After Administration: 20 μL intravitreal single injection, pigmented rabbits", "description": "(a) The fundus images captured immediately before the administration, 1 hour, 2 hours, 6 hours, and 24 hours after the administration were used to measure, as the vascular diameters, (i) the vascular diameter of the retinal artery on the nose side, (ii) the vascular diameter of the retinal artery on the ear side, and (iii) the optic nerve head diameter (longitudinal diameter passing through the center of the optic nerve head).\n(b) The average value of (i) the vascular diameter of the retinal artery on the nose side and (ii) the vascular diameter of the retinal artery on the ear side measured from the fundus images for each time period was divided by (iii) the optic nerve head diameter to calculate the corrected retinal vascular diameter. [Corrected Retinal Vascular Diameter]=(([(i) Vascular Diameter of Retinal Artery on Nose Side]+[(ii) Vascular Diameter of Retinal Artery on Ear Side])/2)/([(iii) Optic Nerve Head Diameter])\n(c) The ratio of the corrected retinal vascular diameter after passage of each of the time periods of 1 hour, 2 hours, 6 hours, and 24 hours after administration to the corrected retinal vascular diameter immediately before administration (retinal vascular diameter change rate (%)) was calculated. [Retinal Vascular Diameter Change Rate (%) After Passage of Each Time Period After Administration]=[Corrected Retinal Vascular Diameter After Passage of Each Time Period After Administration]/[Corrected Retinal Vascular Diameter Immediately Before Administration]×100\n(d) For each time period after administration, the difference (base-corrected retinal vascular diameter change rate (%)) was calculated between the retinal vascular diameter change rate (%) of the group administered with the base simultaneously carried out and the retinal vascular diameter change rate (%) of the groups administered with samples (omidenepag samples 1 and 2, and CP-544326 samples 1 and 2). [Base-Corrected Retinal Vascular Diameter Change Rate (%) After Passage of Each Time Period]=[Retinal Vascular Diameter Change Rate (%) After Passage of Each Time Period After Administration of Samples]−[Retinal Vascular Diameter Change Rate (%) After Passage of Each Time Period After Administration of Base]\n(e) The base-corrected retinal vascular diameter change rate (%) of (a) to (d) above was calculated for three experimental animals in each group, and the average thereof was defined as the value of the “base-corrected retinal vascular diameter change rate (%).”\nIn order to find anew medicinal use of omidenepag, an ester thereof, or a salt thereof, the retinal vasodilatory action in the case of administering omidenepag isopropyl to rabbits was examined.\nOmidenepag isopropyl at 3.98 mg was dissolved in dimethyl sulfoxide to a total volume of 118 μL. Of the total volume, 10 μL was added and dissolved into physiological saline, and an appropriate amount of sodium hydroxide solution was added to adjust the pH of the formulation to 6.4. Thereafter, physiological saline was further added to a total volume of 10 mL to obtain omidenepag isopropyl sample 1 (containing 0.00338% (w/v) (33.8 μg/mL) of omidenepag isopropyl). In addition, the base B was added to 0.1 mL of omidenepag isopropyl sample 1 to a total volume of 10 mL, and omidenepag isopropyl sample 2 was obtained (containing 0.0000338% (w/v) (0.338 μg/mL) of omidenepag isopropyl).\nIn the same method as that in Pharmacological Test 1, the base B and omidenepag isopropyl samples 1 and 2, each at 20 μL, were administered intravitreally (injection, single time) to examine the change in retinal vascular diameter. Note that, 1 hour, 2 hours, 6 hours, 24 hours, and 48 hours after administration of each test compound solution, fundus images of the retinal vascular diameter measuring eyes were captured, and the retinal vascular diameters and the like were measured from the obtained fundus images. […]"}, "[2]": {"test_system": "optic nerve head tissue blood flow", "assay": "Pharmacological Test 4: optic nerve head tissue blood flow (laser speckle flowgraphy) after repeated instillation of omidenepag isopropyl to rabbits", "assay_type": "in vivo, rabbit", "settings": "for Base-Corrected Optic Nerve Head Tissue Blood Flow Change Rate (%): 0.002% (w/v) (20 μg/mL), 50 μL instilled once a day for 14 days, rabbit, average of four animals", "description": "In order to find a new medicinal use of omidenepag, an ester thereof, or a salt thereof, the action of increasing tissue blood flow in the optic nerve head in the case of instilling omidenepag isopropyl to rabbits was examined.\nOmidenepag isopropyl, polyoxyl 35 castor oil, glycerin, sodium citrate, sodium edentate, and benzalkonium chloride were added and dissolved into purified water to adjust the pH. Thereafter, purified water was added to adjust the total volume, thereby preparing a 0.002 w/v % omidenepag isopropyl solution (omidenepag isopropyl sample 3).\nThe base D and omidenepag isopropyl sample 3 as test compound solutions, each at 50 μL, were instilled (ophthalmic solution, once a day, repeated instillation for 14 days) to examine the change in optic nerve head tissue blood flow. In addition, pigmented rabbits (strain: Dutch, sex: male, four animals per group) were used as experimental animals.\n1) After holding the above experimental animals, one drop (about 0.03 mL) of a 0.4% tropicamide ophthalmic solution (trade name: Mydrin-M ophthalmic solution 0.4%) was instilled into the optic nerve head tissue blood flow measurement eye to fully dilate the pupil. Thereafter, laser speckle flowgraphy (LSFG-NAVI manufactured by Softcare Co., Ltd.) was used to measure the tissue blood flow in the optic nerve head of the measurement eye.\n2) The test compound solutions were instilled at 50 μL into one eye (optic nerve head tissue blood flow measurement eye) of each of the experimental animals once a day for 14 days (the contralateral eye was untreated).\n3) At 1 hour and 2 hours after administration of each test compound solution at day 1, day 7, and day 14 after administration of each test compound solution, the optic nerve head tissue blood flow of the optic nerve head tissue blood flow measurement eye was measured.\n(a) The ratio of the optic nerve head tissue blood flow after passage of each of the time periods of 1 hour and 2 hours after administration of each test compound solution at day 1, day 7, and day 14 after the start of administration of each test compound solution to the optic nerve head tissue blood flow immediately before administration (optic nerve head tissue blood flow change rate (%)) was calculated. [Optic Nerve Head Tissue Blood Flow Change Rate (%) After Passage of Each Time Period After Administration]=[Optic Nerve Head Tissue Blood Flow After Passage of Each Time Period After Administration]/[Optic Nerve Head Tissue Blood Flow Immediately Before Administration]×100\n(b) For each time period after administration, the difference (base-corrected optic nerve head tissue blood flow change rate (%)) was calculated between the optic nerve head tissue blood flow change rate (%) of the group administered with the base D simultaneously carried out and the optic nerve head tissue blood flow change rate (%) of the group administered with omidenepag isopropyl sample 3. [Base-Corrected Optic Nerve Head Tissue Blood Flow Change Rate (%) After Passage of Each Time Period]=[Optic Nerve Head Tissue Blood Flow Change Rate (%) After Passage of Each Time Period After Administration of Omidenepag Isopropyl Sample 3]−[Optic Nerve Head Tissue Blood Flow Change Rate (%) After Passage of Each Time Period After Administration of Base D]\n(c) The base-corrected optic nerve head tissue blood flow change rate (%) of (a) and (b) above was calculated for four experimental animals in each group, and the average thereof was defined as the value of the “base-corrected optic nerve head tissue blood flow change rate (%).”"}}, "data": [{"smiles": "CC(C)OC(=O)CNc1cccc(CN(Cc2ccc(-n3cccn3)cc2)S(=O)(=O)c2cccnc2)n1", "note": "[Omidenepag Isopropyl, isopropyl (6-{[4-(pyrazol-1-yl)benzyl](pyridin-3-ylsulfonyl)aminomethyl}pyridin-2-ylamino)acetate]", "values": [{"measurement": "Base-Corrected Retinal Vascular Diameter Change Rate (%) 1 Hour After Administration", "setting": "[1]; 0.0000338% (w/v) (0.338 μg/mL)", "value": 25.1, "unit": "%"}, {"measurement": "Base-Corrected Retinal Vascular Diameter Change Rate (%) 2 Hours After Administration", "setting": "[1]; 0.0000338% (w/v) (0.338 μg/mL)", "value": 34.5, "unit": "%"}, {"measurement": "Base-Corrected Retinal Vascular Diameter Change Rate (%) 6 Hours After Administration", "setting": "[1]; 0.0000338% (w/v) (0.338 μg/mL)", "value": 18.4, "unit": "%"}, {"measurement": "Base-Corrected Retinal Vascular Diameter Change Rate (%) 24 Hours After Administration", "setting": "[1]; 0.0000338% (w/v) (0.338 μg/mL)", "value": 6.8, "unit": "%"}, {"measurement": "Base-Corrected Retinal Vascular Diameter Change Rate (%) 48 Hours After Administration", "setting": "[1]; 0.0000338% (w/v) (0.338 μg/mL)", "value": 1.7, "unit": "%"}, {"measurement": "Base-Corrected Retinal Vascular Diameter Change Rate (%) 1 Hour After Administration", "setting": "[1]; 0.00338% (w/v) (33.8 μg/mL)", "value": 58.4, "unit": "%"}, {"measurement": "Base-Corrected Retinal Vascular Diameter Change Rate (%) 2 Hours After Administration", "setting": "[1]; 0.00338% (w/v) (33.8 μg/mL)", "value": 81.7, "unit": "%"}, {"measurement": "Base-Corrected Retinal Vascular Diameter Change Rate (%) 6 Hours After Administration", "setting": "[1]; 0.00338% (w/v) (33.8 μg/mL)", "value": 73.8, "unit": "%"}, {"measurement": "Base-Corrected Retinal Vascular Diameter Change Rate (%) 24 Hours After Administration", "setting": "[1]; 0.00338% (w/v) (33.8 μg/mL)", "value": 16.0, "unit": "%"}, {"measurement": "Base-Corrected Retinal Vascular Diameter Change Rate (%) 48 Hours After Administration", "setting": "[1]; 0.00338% (w/v) (33.8 μg/mL)", "value": 0.0, "unit": "%"}, {"measurement": "durability of retinal vasodilatory action compared with omidenepag (in words)", "setting": "[1]; both 65.0 μM, 24 hours after intravitreal administration, rabbits", "value": "amore durable action than omidenepag"}, {"measurement": "retinal vasodilatory action (in words)", "setting": "[1]; intravitreal, rabbits", "value": "significantly strong retinal vasodilatory action"}, {"measurement": "blood flow increasing action, optic nerve head (in words)", "setting": "[2]; 0.002 w/v % solution, 50 μL instillation once a day for 14 days, rabbits", "value": "good blood flow increasing action"}, {"measurement": "Base-Corrected Optic Nerve Head Tissue Blood Flow Change Rate (%)", "setting": "[2]; Day 1, 1 hour after administration", "value": 7.2, "unit": "%"}, {"measurement": "Base-Corrected Optic Nerve Head Tissue Blood Flow Change Rate (%)", "setting": "[2]; Day 1, 2 hours after administration", "value": 6.3, "unit": "%"}, {"measurement": "Base-Corrected Optic Nerve Head Tissue Blood Flow Change Rate (%)", "setting": "[2]; Day 7, 1 hour after administration", "value": 9.9, "unit": "%"}, {"measurement": "Base-Corrected Optic Nerve Head Tissue Blood Flow Change Rate (%)", "setting": "[2]; Day 7, 2 hours after administration", "value": 12.4, "unit": "%"}, {"measurement": "Base-Corrected Optic Nerve Head Tissue Blood Flow Change Rate (%)", "setting": "[2]; Day 14, 1 hour after administration", "value": 13.6, "unit": "%"}, {"measurement": "Base-Corrected Optic Nerve Head Tissue Blood Flow Change Rate (%)", "setting": "[2]; Day 14, 2 hours after administration", "value": 11.5, "unit": "%"}]}]}
